Key:
[1] = Rate and extent of absorption after intranasal administration to healthy male subjects; type: in vivo, human; settings: healthy male humans; for bioavailability: male, human, plasma, inhaled or intranasal
Description: (§1) The rate and extent of absorption of melagatran as well as the safety and tolerability were investigated after intranasal administration to six healthy male subjects (between 20 and 40 years of age, body weight between 66 and 86 kg). The trial comprised three study days, separated by wash-out periods of 6-28 days. On study day 1, a single dose of 5 mg of melagatran was administered. The following two study days 10 mg and 20 mg, respectively, were administered.
(§2) Samples for determination of plasma concentration of melagatran (by LC-MS) and for degree of anticoagulation were collected before and up to 10 hours after drug administration. Safety measurements included blood pressure, heart rate and recording of adverse events.
(§3) The safety and tolerability of melagatran when administered nasally were considered satisfactory.

[2] = Bioavailability of intranasal melagatran in rats, with and without absorption enhancers; type: in vivo; settings: rat, inhaled or intranasal
Description: Using standard techniques, melagatran was administered to rats in formulations with and without the enhancers SDS (sodium dodecyl sulfate) or EDTA. The bioavailability was measured by analysis of blood plasma samples using standrad techniques.

[3] = Safety and tolerability after intranasal administration to healthy male subjects; type: in vivo, human; settings: healthy male humans, nasal administration, 5, 10 and 20 mg; blood pressure, heart rate, adverse events
Description: as §1, §2, §3

- absorption after intranasal administration (rate) ([1]; intranasal, 5-20 mg): rapid
- bioavailability ([1]; 5 mg, intranasal, single dose 5 mg, six subjects, read-out: median bioavailability): 19%
- bioavailability ([1]; 10 mg, intranasal, single dose 10 mg, six subjects, read-out: median bioavailability): 12%
- bioavailability ([1]; 20 mg, intranasal, 5, 10 and 20 mg, read-out: bioavailability, range over the six subjects at the three doses): 7 to 45%
- bioavailability ([1]; 20 mg, intranasal, single dose 20 mg, six subjects, read-out: median bioavailability): 19%
- bioavailability ([2]; 20 umol/kg, melagatran alone (no enhancer), blood plasma samples, read-out: bioavailability): ~10%
- bioavailability ([2]; plasma, 20 μmol/kg, formulations with enhancers SDS or EDTA, read-out: bioavailability with enhancers): ≤ 19%
Compound: N=C(N)c1ccc(CNC(=O)[C@@H]2CCN2C(=O)[C@H](NCC(=O)O)C2CCCCC2)cc1 [melagatran, HOOC—CH2—(R)-Cgl-Aze-Pab]
- dose dependence of rate or extent of absorption ([1]; intranasal, 5, 10 and 20 mg): no indication of a dose dependent rate or extent of absorption
- safety and tolerability [3]: satisfactory
